Source: ChEMBL document CHEMBL5344440, “Fragment Merging, Growing, and Linking Identify New Trypanothione Reductase Inhibitors for Leishmaniasis” (J Med Chem, 2024)

Tests used:
[1] = molecular target: Trypanothione reductase (Leishmania infantum) (UniProt A4HSF7); assay: Inhibition of Leishmania infantum Trypanothione reductase expressed in Escherichia coli BL21 (DE3) assessed as enzyme residual activity using trypanothione as substrate at 10 uM preincubated for 3 mins followed NADPH addition by spectrophotometric analysis
Sequence of Trypanothione reductase (Leishmania infantum) (A4HSF7 as listed by the source): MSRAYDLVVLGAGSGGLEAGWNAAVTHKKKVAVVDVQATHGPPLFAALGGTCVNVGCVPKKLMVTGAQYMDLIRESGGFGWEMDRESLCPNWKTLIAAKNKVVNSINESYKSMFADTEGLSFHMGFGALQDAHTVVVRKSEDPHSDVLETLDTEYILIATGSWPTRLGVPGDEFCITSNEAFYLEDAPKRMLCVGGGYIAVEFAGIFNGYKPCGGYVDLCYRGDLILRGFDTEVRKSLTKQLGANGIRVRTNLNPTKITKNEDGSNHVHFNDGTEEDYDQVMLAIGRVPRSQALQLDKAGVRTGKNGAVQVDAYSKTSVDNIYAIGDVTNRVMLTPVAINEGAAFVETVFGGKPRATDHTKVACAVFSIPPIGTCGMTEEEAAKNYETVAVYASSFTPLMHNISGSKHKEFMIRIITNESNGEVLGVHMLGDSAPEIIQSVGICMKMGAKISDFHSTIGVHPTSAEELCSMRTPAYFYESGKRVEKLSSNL

[2] = system: Leishmania infantum; assay: Antileishmanial activity against axenic amastigote form of Leishmania infantum MHOM/TN/80/IPT1 assessed as parasite growth inhibition measured after 72 hrs by MTT assay; format: functional, organism-based; details: MHOM/TN/80/IPT1, 72 h
[3] = (§1) Cytotoxicity against PMA-differentiated human THP-1 cells assessed as reduction in cell viability measured after 72 hrs by MTT assay; format: toxicity, cell-based; details: PMA-differentiated THP-1 cells
[4] = Selectivity index, ratio of CC50 for cytotoxicity against human THP-1 cells to EC50 for antileishmanial activity against axenic amastigote form of Leishmania infantum MHOM/TN/80/IPT1; format: toxicity, cell-based; details: read-out: Ratio CC50/EC50
[5] = (§2) Cytotoxicity against BALB/c mouse peritoneal macrophages assessed as reduction in cell viability measured after 72 hrs by MTT assay; format: toxicity, cell-based, Peritoneal macrophage; details: BALB/c, peritoneal macrophages
[6] = molecular target: Trypanothione reductase (Leishmania infantum) (UniProt A4HSF7); assay: Inhibition of Leishmania infantum Trypanothione reductase expressed in Escherichia coli BL21 (DE3) assessed as enzyme residual activity using trypanothione as substrate at 100 uM preincubated for 3 mins followed NADPH addition by spectrophotometric analysis
[7] = system: Leishmania infantum; assay: Antileishmanial activity against amastigote form of Leishmania infantum infected in BALB/c mouse macrophages assessed as reduction in parasite infection at 12.5 uM measured after 72 hrs by Giemsa staining based optical microscopy relative to control; format: functional
[8] = system: glutathione reductase versus Leishmania infantum trypanothione reductase; assay: Selectivity index, ratio of IC50 for inhibition of human glutathione reductase expressed in Escherichia coli cells to IC50 for inhibition of Leishmania infantum Trypanothione reductase expressed in Escherichia coli BL21 (DE3); format: toxicity; details: read-out: Ratio IC50
[9] = system: THP-1; assay: as §1; format: toxicity, cell-based; details: thp-1, 72 h
[10] = system: Peritoneal macrophage; assay: as §2; format: toxicity, cell-based; details: peritoneal macrophage, 72 h

Question: Which results are given for `O=C(NCCc1ccccc1)c1ccc(CN(C(=O)N2CCN(Cc3ccc(Cl)c(Cl)c3)CC2)c2ccc(F)cc2)o1`?
Answer: Activity [1]: 94.1%; EC50 [2]: 10.3 µM; CC50 at 72 h [3]: 11.7 µM; selectivity ratio [4]: 1.1; CC50 at 72 h [5]: 14.4 µM

Question: For `O=C(NCCc1ccc(F)cc1)c1ccco1`, which Activity [6] is on record?
Answer: 85.3%

Question: For `C[C@@H]1[C@H](O)[C@@H](C)/C=C/C=C/C=C/C=C/C=C/C=C/C=C/[C@H](O[C@@H]2O[C@H](C)[C@@H](O)[C@H](N)[C@@H]2O)C[C@@H]2O[C@](O)(C[C@@H](O)C[C@@H](O)[C@H](O)CC[C@@H](O)C[C@@H](O)CC(=O)O[C@H]1C)C[C@H](O)[C@H]2C(=O)O` [AMPHOTERICIN B], which EC50 [2] is on record?
Answer: 0.5 µM

Question: With `O=C(NCCc1ccc(F)cc1)c1ccc(CNC(=O)N2CC[N+](CCCc3ccccc3)(Cc3ccc(Cl)c(Cl)c3)CC2)o1` as the compound, how does the inhibition at 12.5 µM [7] read?
Answer: 40%

Question: Which Activity [1] does the source give for `O=C(NCCc1ccc(F)cc1)c1ccc(CN(C(=O)N2CCN(CCCN3c4ccccc4Sc4ccc(C(F)(F)F)cc43)CC2)c2ccc(F)cc2)o1` here?
Answer: 70.8%

Question: And the EC50 [2]?
Answer: 13 µM

Question: What about the CC50 at 72 h [3] of the same compound?
Answer: 23.4 µM

Question: And the selectivity ratio [4]?
Answer: 1.8

Question: And the CC50 at 72 h [5]?
Answer: 30.7 µM

Question: Which selectivity ratio [4] does the source give for `O=C(O)c1ccc(N(Cc2ccc(C(=O)NCCc3ccc(F)cc3)o2)C(=O)N2CCN(CCCc3ccccc3)CC2)cc1` here?
Answer: > 2

Question: For `CC(=O)N1CCN(CCCc2ccccc2)CC1`, which Activity [6] is on record?
Answer: 77.7%

Question: What does the source list for `O=C(NCCc1ccc(F)cc1)c1ccc(CN(C(=O)N2CCN(CCCN3c4ccccc4Sc4ccc(Cl)cc43)CC2)c2ccc(F)cc2)o1`?
Answer: selectivity ratio [8]: 0.4; CC50 [9]: 6.5 µM; selectivity ratio [4]: 0.5; CC50 [10]: 9.1 µM
